The source of these data is US6531156B1, “Aqueous solven encapsulation method, apparatus and microcapsules” (Temple University, priority 1994, dated 2003).

SMILES strings stand for the structures. Like-named read-outs stand apart in the source and are kept apart here.

Data set [1] is described as follows: pH response and retention of bromphenol blue in octadecylamine carboxymethylcellulose microcapsules. It is filed as physicochemical. The conditions noted are these: for colour of microcapsules in acid medium: rehydrated and wet stored microcapsules. How it is done: Step 1: A 100 milligram sample of bromphenol blue (Fisher Scientific Co.) was dissolved in 25 milliliters of a 0.1% solution of sodium carboxymethylcellulose (medium viscosity, Ruger Chemical Co.) and the resulting solution was slowly pumped (approximately 1 milliliter per minute) through a capillary drawn to a fine tip (0.1 millimeter o.d.). The emerging droplets were allowed to fall a distance of about 1 centimeter into a slowly stirred 0.1% aqueous solution of octadecylamine (Aldrich Chemical Co.) solubilized as the acetate at pH 7.0.
Step 2: The resulting approximately 1.5 millimeter diameter microcapsules were stirred for an additional hour and separated with the aid of fine netting. The microcapsules were washed with two 100 milliliter volumes of water. About half the microcapsules were stored wet and refrigerated until used. The other half of the microcapsules were lyophilized and stored dry until used.
Step 3: A few dozen of the lyophilized microcapsules were rehydrated in a few milliliters of water for an hour and were used in parallel with the wet stored microcapsules to test their sensitivity to pH. Dilutions of hydrochloric acid were made to provide solutions with pH values of 2, 3, and 4. To these hydrochloric acid solutions, a few rehydrated and a few wet stored microcapsules were added one at a time.

Data set [2] relates to bovine rotavirus strain WC3. To be noted: WC3 stock diluted 1:50 in 0.05N sodium salt of polymer or 0.05M amine salt, pH 7.0, versus 0.9% NaCl.
The conditions of data set [3]: spermine alginate microcapsules, 5 water washes, absorbance after dissolving microcapsules with sodium chloride.

As for `O=S1(=O)OC(c2cc(Br)c(O)c(Br)c2)(c2cc(Br)c(O)c(Br)c2)c2ccccc21` [bromphenol blue], in data set [1] (octadecylamine carboxymethylcellulose microcapsules, rehydrated and wet stored), the “diffusion of encapsulated indicator out of the microcapsule” value is recorded as “did not diffuse out of it”. Further, the results for the “colour of microcapsules in acid medium” value in data set [1] (pH 3 solution) and in data set [1] (pH 4 medium) were “changed to yellow within a few minutes” and “remained blue”, respectively.

`CCCCCCCCCCCCN` [dodecylamine]: the “reduction in rotavirus infectivity” value in data set [2] is “complete ablation”.

Take `O=c1[nH]cc(F)c(=O)[nH]1` [fluorouracil, Fluorouracil]: the “initial amount of core material retained in the microcapsules during the repeated washings” value in data set [3] is given as “more than half”.

Turning to `CN(C)c1ccc2nc3ccc(=[N+](C)C)cc-3sc2c1` [methylene blue], in data set [2], the “reduction in rotavirus infectivity” value is on record as “Essentially no effect”.

Consider `C1CNCCN1` [piperazine], for which the “reduction in rotavirus infectivity” value in data set [2] worked out at 30 fold.

As to `NCCCNCCCCNCCCN` [spermine], the “reduction in rotavirus infectivity” value was “Essentially no effect” in data set [2] and “neither sodium alginate nor spermine hydrochloride reduced rotavirus infectivity” in data set [2] (listed as spermine hydrochloride).
